We go through 19 molecules from patent US20060223879A1, “Non-steroidal farnesoid x receptor modulators” (priority 2002, published 2006).

Where “and” joins values, the source holds several entries; their conditions need not be identical. Equal values may be shown once. Read-outs that look alike come from different tables or passages of the source. Where only a bound is given, the exact number is not on record here.

The target of the experiment is T1, FXR (Homo sapiens, UniProt Q96RI1).
T1 construct: using a full length FXR on a natural response element; expressed in transfected cells
T1 sequence (Q96RI1 1-486): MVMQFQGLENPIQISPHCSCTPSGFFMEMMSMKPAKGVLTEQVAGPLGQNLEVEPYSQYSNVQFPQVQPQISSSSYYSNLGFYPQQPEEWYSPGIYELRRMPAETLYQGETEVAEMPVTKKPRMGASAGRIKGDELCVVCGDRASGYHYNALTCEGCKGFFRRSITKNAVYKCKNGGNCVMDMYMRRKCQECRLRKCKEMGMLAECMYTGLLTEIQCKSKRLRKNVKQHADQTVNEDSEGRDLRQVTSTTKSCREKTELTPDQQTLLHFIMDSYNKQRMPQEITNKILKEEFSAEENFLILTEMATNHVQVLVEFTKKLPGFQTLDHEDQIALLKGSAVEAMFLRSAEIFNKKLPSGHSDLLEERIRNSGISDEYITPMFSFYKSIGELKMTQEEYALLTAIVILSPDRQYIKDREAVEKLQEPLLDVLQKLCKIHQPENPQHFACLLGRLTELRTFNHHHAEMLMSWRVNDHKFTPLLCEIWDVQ
Nature of the experiment: cell-based transcription assay, FXR responsive promoter linked to a luciferase reporter. Details: RE: scale not given here. To be noted: for EC50: FXR activation, read-out: EC50; for EC50 / FXR activation (in words): cell-based reporter assay; for RE: RE not defined in the source. An excerpt: In addition to ensuring that only cell permeable compounds were selected for further optimization, this approach allows for the detection of FXR activation in a natural system (i.e., correct folding of the protein and in the presence of a complete compliment of co-activators and co-repressors).
The feasibility of creating high throughput screens (XIS) for ORs was explored using FXR as a candidate orphan receptor (OR) with a known activator, chenodeoxycholic acid (CDCA) as a ligand. The screen is based on the co-transfection of a full-length receptor with the reporter vector containing a natural hormone response element under a minimal eukaryotic promoter. […] Using this 384-well format, the high throughput screening (HTS) approach to FXR as a candidate OR was employed. […] A central question in the feasibility studies is whether this library is suitable for screening for nuclear receptor ligands. Samples of this library were first reformatted into a 384-well format and then subjected to the FXR cell-based assays described above and assessed for FXR-mediated transcriptional activity. Cells were exposed to approximately 10 μM of sample for 18 hrs prior to washing and luciferase analysis.
EC50 values were determined with Prism 3.0 software via the activity of the subject compound in the previously described cell based assay.
For orientation: In a reporter assay the amount or activity of a reporter protein is the signal.

Consider `COC(=O)/C=C/c1cccc(N(Cc2ccc(C(C)(C)C)cc2)C(=O)C2CCCCC2)c1` [Compound 148], for which, where the note is “Tables 1-15”, the EC50 was above 1 µM and the RE amounted to 0.15.

In the case of `CC(C)(C)OC(=O)C=Cc1ccc(CN(C(=O)C2CCCCC2)c2cccc(C=CCOc3ccccc3)c2)cc1` [Compound 138], under “Tables 1-15”, the concentration for a half-maximal effect (EC50) came to 2.83 µM and the RE is on record as 0.45.

For the molecule `COC(=O)C=Cc1cccc(N(Cc2ccc(C=CC(=O)OC(C)(C)C)cc2OC)C(=O)C2CCCCC2)c1` [Compound 162], where the note is “Tables 1-15”, the EC50 was above 1 µM and the RE is recorded as 0.14.

For `COC(=O)/C=C/c1cccc(N(Cc2ccc(-c3ccc(OC)cc3)cc2)C(=O)C(C)C)c1` [Compound 230], the “FXR activation (in words)” value is reported as “excellent activity”. Also, under “Tables 1-15”, the concentration for a half-maximal effect (EC50) came to 0.097 µM.

For the molecule `CCOC(=O)C=Cc1cccc(N(Cc2ccc(C=CC(=O)OC(C)(C)C)cc2)C(=O)C2CCCCC2)c1` [Compound 133], the “FXR activation (in words)” value is on record as “marked decline in potency”.

With `COC(=O)/C=C/c1cccc(NC(=O)C2CCCCC2)c1` [Compound 132], under “Tables 1-15”, the EC50 was above 1 µM and the RE was 0.09.

As for `COC(=O)/C=C/c1cccc(N(Cc2ccc(/C=C/C(=O)OC(C)(C)C)cc2)C(=O)C2CCCCC2)c1` [Compound 105], the EC50 is 0.127 µM and 0.127 to 0.25 µM. The RE (Tables 1-15) was 2.12.

For `COC(=O)/C=C/c1cccc(N(Cc2ccc(/C=C/c3c(F)cccc3F)cc2)C(=O)NC(C)C)c1` [Compound 191], for the setting “Tables 1-15”, the concentration giving a half-maximal response (EC50) was 4.02 µM and the RE is recorded as 0.21.

Take `COC(=O)/C=C/c1cccc(N(Cc2ccc(/C=C/c3c(Cl)cccc3Cl)cc2)C(=O)C2CCCCC2)c1` [Compound 177]: the “FXR activation (in words)” value is on record as “excellent activity”. For the same molecule, where the note is “Tables 1-15”, the EC50 stood at 0.15 µM and the RE is 0.12.

As for `COC(=O)/C=C/c1cccc(N(Cc2ccc(-c3ccc(F)c(Cl)c3)cc2)C(=O)C(C)C)c1` [Compound 248], under “Tables 1-15”, the 50% effective concentration (EC50) worked out at 0.129 µM and the RE is 1.64.

Turning to `CC(C)(C)OC(=O)/C=C/c1cccc(N(Cc2ccc(CCC(=O)OC(C)(C)C)cc2)C(=O)C2CCCCC2)c1` [Compound 160], where the note is “Tables 1-15”, the EC50 was above 1 µM and the RE is 0.84.

Regarding `COC(=O)/C=C/c1cccc(N(Cc2ccc(-c3ccc(OC)cc3)cc2)C(=O)NC(C)C)c1` [Compound 231], for the setting “Tables 1-15”, the EC50 turned out to be 0.144 µM and the RE is 1.16.

Regarding `COC(=O)/C=C/c1cccc(N(Cc2ccc(-c3ccc(CC(C)C)cc3)cc2)C(=O)C(C)C)c1` [Compound 263], for the setting “Tables 1-15”, the EC50 was determined as 0.343 µM and the RE amounted to 0.59.

In the case of `COC(=O)C=Cc1cccc(N(Cc2ccc3c(c2OC)OC(C)(C)C(OC(C)=O)C3Sc2ccccc2)C(=O)c2ccccc2)c1` (stereo not drawn) [Compound 99], the “FXR activation (in words)” value is “Nor did the addition of H-bond acceptors such as in 89, 90, 95, 99 and 101 improve the ability of the parent compound 68 to activate FXR”.

For `COC(=O)/C=C/c1cccc(N(Cc2ccc(-c3cccc(Cl)c3)cc2)C(=O)C2CCCCC2)c1` [Compound 232], the “FXR activation (in words)” value is “excellent activity”. For the same molecule, for the setting “Tables 1-15”, the EC50 is 0.094 µM and the RE is 1.56.

Consider `COC(=O)C=Cc1cccc(N(Cc2ccc(C=Cc3cccc(Cl)c3)cc2)C(=O)C2CCCCC2)c1` [Compound 180], for which the “FXR activation (in words)” value was “excellent activity”. Moreover, for the setting “Tables 1-15”, the EC50 stood at 0.165 µM and the RE is listed as 1.41.

With `COC(=O)/C=C/c1cccc(N(Cc2ccc(-c3cccc(OC)c3)cc2)C(=O)NC(C)C)c1` [Compound 225], for the setting “Tables 1-15”, the half-maximal effective concentration (EC50) amounted to 1.37 µM and the RE turned out to be 0.41.

As for `COC(=O)/C=C/c1cccc(N(Cc2ccc(/C=C/c3cc(C(F)(F)F)cc(C(F)(F)F)c3)cc2)C(=O)NC(C)C)c1` [Compound 185], where the note is “Tables 1-15”, the EC50 came to 1.83 µM and the RE is given as 0.13.

`COC(=O)C=Cc1cccc(N(Cc2ccc(C=CC(=O)O)cc2)C(=O)C2CCCCC2)c1` [Compound 104]: for the setting “Tables 1-15”, the 50% effective concentration (EC50) is above 1 µM and the RE is reported as 0.08.

The term EC50 denotes the concentration needed to bring the measured effect to its halfway point.
